The results in this text go back to ChEMBL document CHEMBL6092217 (Eur J Med Chem, 2024).

Assay [1] concerns PC-3. Description: Antiproliferative activity against human PC-3 cells assessed as cell viability incubated for 72 hrs by MTT assay. The format is functional, cell-based. Conditions: PC-3, 72 h. In general terms: Formazan colour is commonly taken as a measure of viable cells.
For assay [2], the system named is RKO. Description: Antiproliferative activity against human RKO cells assessed as cell viability incubated for 72 hrs by MTT assay. The class given is functional, cell-based.
The subject of assay [3] is MCF7. Put plainly: Antiproliferative activity against human MCF7 cells assessed as cell viability incubated for 72 hrs by MTT assay. The format is functional, cell-based. Conditions: MCF7, 72 h.
In assay [4] the test system is HepG2. Description: Antiproliferative activity against human HepG2 cells assessed as cell viability incubated for 72 hrs by MTT assay. The class given is functional, cell-based. Conditions: HepG2, 72 h.
Assay [5] deals with HT-29. Description: Antiproliferative activity against human HT-29 cells assessed as cell viability incubated for 72 hrs by MTT assay. The class given is functional, cell-based. Conditions: HT-29, 72 h.
Assay [6] can be described thus: Resistance index, ratio of IC50 for human A549/TxR cells to IC50 for human A549 cells. The class given is functional.
The subject of assay [7] is HT-29. Description: Induction of cell cycle arrest in human HT-29 cells assessed as accumulation of cells at G1 phase at 10 nM incubated for 24 hrs by flow cytometry analysis (reference value: 67.6%). The format is functional. In general terms: In flow cytometry, cells or beads pass a laser one at a time.
In assay [8] the test system is HT-29. Put plainly: Induction of cell cycle arrest in human HT-29 cells assessed as accumulation of cells at S phase at 10 nM incubated for 24 hrs by flow cytometry analysis (reference value: 20.8 %). The format is functional.
The test system of assay [9] is HT-29. Description: Induction of cell cycle arrest in human HT-29 cells assessed as accumulation of cells at G2 phase at 10 nM incubated for 24 hrs by flow cytometry analysis (reference value: 13 %). The class given is functional.
The test system of assay [10] is HT-29. Description: Induction of apoptosis in human HT-29 cells assessed as viable cells at 20 nM incubated for 24 hrs by FITC/PI staining based flow cytometry analysis (reference value: 91.6%). The class given is functional. Conditions: read-out: Activity.
Assay [11] deals with HT-29. Description: Induction of apoptosis in human HT-29 cells assessed as early apoptotic cells at 20 nM incubated for 24 hrs by FITC/PI staining based flow cytometry analysis (reference value: 8.14%). The class given is functional.
In assay [12] the test system is HT-29. Description: Induction of apoptosis in human HT-29 cells assessed as late apoptotic cells at 20 nM incubated for 24 hrs by FITC/PI staining based flow cytometry analysis (reference value: 0.20%). The class given is functional.
The subject of assay [13] is HT-29. Put plainly: Induction of apoptosis in human HT-29 cells assessed as necrotic cells at 20 nM incubated for 24 hrs by FITC/PI staining based flow cytometry analysis (reference value: 0.017 %). The class given is functional.
For assay [14], the system named is MDA-MB-231. Description: cells. Conditions: Homo sapiens, MDA-MB-231, 72 h.
Description: Antiproliferative activity against human MDA-MB-231 cells assessed as cell viability incubated for 72 hrs by MTT assay
The nature of assay [15]: Binding affinity to porcine brain tubulin assessed as dissociation constant measured after 20 mins by fluorescence based analysis. More on the design: species or system Sus scrofa.
Assay [16] addresses Tubulin. Put plainly: Inhibition of tubulin polymerization (unknown origin) in presence of GTP by fluorescence plate reader analysis. The format is protein-complex assay, Homo sapiens.

`CC(=O)O[C@H]1C(=O)[C@@]2(C)[C@H]([C@H](OC(=O)c3ccccc3)[C@]3(O)C[C@H](OC(=O)[C@H](O)[C@@H](NC(=O)c4ccccc4)c4ccccc4)C(C)=C1C3(C)C)[C@]1(OC(C)=O)CO[C@@H]1C[C@@H]2O` [PACLITAXEL]: the half-inhibitory concentration (IC50) was 0.028 µM in [1]; 0.003 µM in assay [2]; 0.037 µM in assay [3]; 0.036 µM in [4]; 0.013 µM in [5]; 0.022 µM in assay [14]. Further, the “Ratio IC50” value in assay [6] is 11.29. Also, the Activity in assay [7] turned out to be 60.2%; in assay [8], 15.1%; in assay [9] it was 22.6%; in assay [11], 5.4%; in [12], 22.7%; in assay [13] it was 1.32%. Besides, in [10], the viability at 0.02 µM stood at 70.6%.
`COc1ccc(N(C)c2nc(/C=C/c3cccc(OC)c3)nc3cccc(F)c23)cc1`: the IC50 worked out at 0.36 µM in assay [1]; 0.15 µM in [2]; 0.46 µM in [3]; 0.41 µM in assay [4]; 0.24 µM in assay [5]; 0.8 µM in assay [14].
In the case of `COc1ccc(N(C)c2nc(/C=C/c3cccc(Cl)c3)nc3ccccc23)cc1`, the half-maximal inhibitory concentration (IC50) worked out at 2.18 µM in [1]; 1.37 µM in assay [2]; 1.06 µM in assay [3]; 1.73 µM in [4]; 0.71 µM in assay [5]; 4.17 µM in [14].
As for `CN(c1ccc2c(c1)OCO2)c1nc(/C=C/c2ccccc2)nc2ccccc12`, the IC50 in assay [1] is 1.07 µM; in [2] it was 0.72 µM; in assay [3] it was 1.64 µM; in assay [4] it was 1.14 µM; in [5], 2.79 µM; in assay [14], 3.68 µM.
Turning to `COc1ccc(OC)c(N(C)c2nc(/C=C/c3ccccc3)nc3ccccc23)c1`, the half-maximal inhibitory concentration (IC50) in [1], in [2], in assay [3], in assay [4], in [5] and in [14] was greater than 10 µM in each case.
On to `COc1ccc(N(C)c2nc(/C=C/c3cccc(Br)c3)nc3ccccc23)cc1`, for which the IC50 in assay [1] is 7.38 µM; in assay [2] it was greater than 10 µM; in assay [3] it was greater than 10 µM; in assay [4], greater than 10 µM; in assay [5], greater than 10 µM; in assay [14], 9.86 µM.
`COc1cc(N(C)c2nc(/C=C/c3ccccc3)nc3ccccc23)cc(OC)c1OC`: the IC50 in assay [1], in assay [2], in assay [3], in assay [4], in assay [5] and in assay [14] was greater than 10 µM each time.
For the compound `CN(c1ccccc1)c1nc(/C=C/c2ccccc2)nc2ccccc12`, the 50% inhibitory concentration (IC50) in assay [1], in assay [2], in [3], in assay [4], in assay [5] and in assay [14] was greater than 10 µM each time.
For the compound `COc1ccc(N(C)c2nc(/C=C/c3ccccc3)nc3ccccc23)c(OC)c1`, the half-inhibitory concentration (IC50) in assay [1] stood at 2.75 µM; in [2], 0.65 µM; in assay [3], 1.9 µM; in assay [4], 8.22 µM; in assay [5], 0.75 µM; in assay [14] it was 5.73 µM.
For the compound `COc1ccc(N(C)c2nc(/C=C/c3ccccc3OC)nc3ccccc23)cc1`, the IC50 in [1] was 0.74 µM; in assay [2] it was greater than 10 µM; in assay [3], greater than 10 µM; in assay [4], greater than 10 µM; in assay [5] it was 8.16 µM; in [14] it was greater than 10 µM.
For `COc1ccc(N(C)c2nc(/C=C/c3ccccc3)nc3ccccc23)cc1`, the IC50 in assay [1] is 0.34 µM; in assay [2] it was 0.25 µM; in [3] it was 0.23 µM; in assay [4] it was 1.19 µM; in assay [5], 0.25 µM; in [14], 1.36 µM.
In the case of `COc1cccc(OC)c1N(C)c1nc(/C=C/c2ccccc2)nc2ccccc12`, the IC50 in [1], in assay [2], in assay [3], in [4], in [5] and in assay [14] was greater than 10 µM each time.
`CN(c1ccc(F)cc1)c1nc(/C=C/c2ccccc2)nc2ccccc12`: the half-maximal inhibitory concentration (IC50) in assay [1] was found to be 1.11 µM; in assay [2], 0.54 µM; in assay [3], 1.08 µM; in assay [4] it was 0.91 µM; in assay [5] it was 0.53 µM; in assay [14], 2.85 µM.
Take `COc1ccc(N(C)c2nc(/C=C/c3ccc(OC)cc3OC)nc3ccccc23)cc1`: the 50% inhibitory concentration (IC50) in assay [1] was 0.11 µM; in [2], 0.12 µM; in assay [3], 0.14 µM; in assay [4], 0.22 µM; in [5] it was 0.047 µM; in assay [16], greater than 10 µM. The compound also registered an IC50 in assay [14] of 0.24 µM. Moreover, the dissociation constant Kd in assay [15] is 43.3 µM.

By IC50 is commonly meant the concentration at which inhibition is half-maximal. As usually defined, the Kd is the free concentration of one partner at which half of the binding sites on the other are occupied at equilibrium, for simple one-to-one binding.
